# What was measured:
# caspase-3 = assay: Caspase-3 activation (cleavage product) by Western blot in VSM cells; type: cell-based, rat
# Description: FIGS. 19A and B depict how Caspase-3 is activated by antisense oligonucleotide to p21 but not early after radiation or Adriamycin, as described in Example III, infra. Confluent VSM cells were transfected with oligonucleotide in the concentration indicated, left in serum-containing media overnight, and exposed to (A) ionizing radiation (12 Gy) or (B) Adriamycin where indicated. 4 hours later, activation of caspase-3 was assessed by Western blotting. The arrowhead indicates the cleavage product of caspase-3 signifying its processing as an early step in apoptosis. Wortmannin (wort) is a positive control for apoptosis. […] The experiment shown is representative of two separate experiments.
# Western blots: Cells were grown to confluence in 6 cm culture dishes and serum deprived. After transfection and or treatment with appropriate agonist, conditioned medium was removed and saved and the cells were washed with phosphate-buffered saline and lysed in lysis buffer. Both supernatant and cell lysate were normalized to the lysate protein concentrations and Western blotted as described (Weiss R H, et al. Am J Physiol 274:C1521-C1529, 1998).
# In order to determine whether the potentiation of ionizing radiation and Adriamycin induced DNA synthesis inhibition by p21 antisense oligonucleotides is accompanied by apoptosis, caspase-3 activation in response to ionizing radiation was examined. Caspase-3 is an effector caspase whose activation (leading to apoptosis) results in a 20 kD cleavage product which can be assessed by Western blotting (McCarthy N J, Evan G I. Curr Top Dev Biol 36:259-278, 1998). This process is an early event in a cascade of reactions which ultimately leads to apoptosis, as is evident by the fact that inactivation of caspase-3 dramatically reduces apoptosis in several cell lines (Woo M, et al. Genes Dev 12:806-819, 1998).
# VSM cells were transfected with antisense or control oligonucleotides overnight and then stimulated with ionizing radiation.
# Met-1 cells = assay: Growth of Met-1 cells in culture; type: cell-based, mouse; settings: transfection
# fibronectin = assay: Fibronectin production and secretion (immunoprecipitation/immunoblot); type: cell-based, rat; settings: VSM cells, 400 nM, TGF-β 0.1 to 10 ng/ml
# Description: Immunoprecipitations: VSM cells were grown to confluence. After incubation under appropriate conditions, the cells were washed with ice-cold phosphate-buffered saline and immediately lysed in lysis buffer (20 mM Tris [pH7.5], 150 mM NaCl, 1 mM EDTA, 1 mM EGTA, 1% Triton X-100, 2.5 mM sodium pyrophosphate, 1 mM β-glycerolphosphate, 1 mM Na3VO4, 1 μg/ml Leupeptin, 1 mM PMSF) at 4° C. The cells were scraped off with a rubber spatula and the insoluble material removed by centrifuging at 10,000× g for 10 min at 4° C. Protein concentration was determined by A595, and lysates containing equal amounts of protein were incubated with […] anti-fibronectin antibody at 4° C. overnight. Protein A-Sepharose beads were added and the resulting mixture was incubated for an additional 2 hours at 4° C. The beads were centrifuged in a microfuge for 20 sec, and the pellet was washed 3 times with cold lysis buffer. The supernatant was decanted, gel loading buffer was added to the precipitate, and the solution was boiled for 5 min, and centrifuged. The supernatant was electrophoresed on a 7.5% SDS-polyacrylamide gel with equal volumes of sample per lane. The proteins were electrophoretically transferred to nitrocellulose and probed with fibronectin antibody.
# The p21 influences on matrix protein secretion in VSM cells were determined. […]
# A10 VSM cells = assay: [3H]thymidine incorporation (DNA synthesis) in A10 VSM cells; type: cell-based, rat
# cyclinE/cdk2 = assay: Cyclin E immunoprecipitation / cdk2 immunoblot in A431 cells; type: cell-based, human; settings: 10 min to 6 hours of PDGF exposure
# Excerpt: Cyclin/cdk interactions occur after growth factor stimulation and serve to integrate such responses with the CKIs and transmit them to the Rb/E2F systems, which leads to mitogenic signal transmission. The cyclin D1/cdk 4 interaction occurs early after growth factor stimulation (reviewed in (Arellano and Moreno, 1997 Int. J. Biochem. Cell Biol., 29, p. 559-573)), while the cyclinE/cdk2 interaction occurs late in G1 and is thought to have a role in triggering the actual onset of DNA replication after the cells have passed the restriction point (reviewed in (Sherr and Roberts, 1995: Genes Dev., 9, p. 1149-1163)). A431 cells were transfected with p21^Waf1/Cip1 antisense (SEQ. ID NO.:1) or sense (SEQ. ID NO.:2) oligodeoxynucleotide, allowed to grow overnight in serum-free media, and then stimulated for various times with PDGF-BB. The cells were subsequently immunoprecipitated with either cyclinD1 or cyclinE and immunoblotted with cdk4 or cdk2, respectively. A lysate sample, showing the mobility of the immunoprecipitated cdks, confirmed the identity of the cdks. A431 cells were transfected with antisense (SEQ. ID NO.:1) or sense p21^Waf1/Cip1 (SEQ. ID NO.:2) oligonucleotides. […]
substance,measurement,setting,value
5′-GACATCACCAGGATCGGACAT-3′,caspase-3 activation,caspase-3; Adriamycin experiment (FIG. 19b),caspase-3 activation was observed
same,caspase-3 activation,"caspase-3; alone or after ionizing radiation 12 Gy, 4 hours",impressive increase
same,growth of Met-1 cells in culture,Met-1 cells,did not affect growth
same,TGF-β-mediated fibronectin production and secretion,fibronectin,decreases
same,PDGF-stimulated DNA synthesis,"A10 VSM cells; A10 VSM cells, 200 nM oligodeoxynucleotide lipofected, PDGF-BB 30 ng/ml 18 hours",Significant inhibition
same,DNA synthesis relative to control oligodeoxynucleotide,"A10 VSM cells; A10 VSM cells, 10% serum",markedly inhibited
same,"PDGF-stimulated DNA synthesis, dose/response","A10 VSM cells; A10 VSM cells, increasing oligodeoxynucleotide concentration up to 200 nM",inhibition of DNA synthesis with increasing concentration
same,effects of irradiation on cell cycle arrest (DNA synthesis),"A10 VSM cells; VSM cells, 1 to 12 Gy, maximum potentiation at 8 Gy",potentiated at higher doses of radiation
same,potentiation of irradiation effect at 12 Gy,"A10 VSM cells; VSM cells, 12 Gy",did not reach statistical significance
same,potentiation of Adriamycin growth inhibition,"A10 VSM cells; VSM cells, 1000 to 2000 ng/ml Adriamycin",significant potentiation
same,cell growth (DNA synthesis) stimulated with PDGF-BB and serum,"A10 VSM cells; VSM cells, similar oligodeoxynucleotide concentrations (FIG. 9d)",inhibited
same,DNA synthesis in non-irradiated cells,A10 VSM cells; confluent VSM cells in serum-containing medium,marked inhibition
same,cyclinE/cdk2 association,cyclinE/cdk2,no effect

# Reference: patent publication US20050043262A1, “Novel specific inhibitor of the cyclin kinase inhibitor p21Waf1/Cip1 and methods of using the inhibitor” (priority 2000, published 2005)
